Data taken from patent publication US20080319000A1, “Use of 3,1IB-Cis-Dihydrotetrabenazine for the Treatment of Symptoms of Huntingtons Disease” (CAMBRIDGE LABORATORIES (IRELAND) LIMITED, priority 2005, published 2008).

What was measured:
[1] = target: T1, monoamine oxidase isoform B (Homo sapiens, UniProt P27338); assay: Monoamine oxidase B inhibition; format: biochemical
T1 sequence (P27338 1-520): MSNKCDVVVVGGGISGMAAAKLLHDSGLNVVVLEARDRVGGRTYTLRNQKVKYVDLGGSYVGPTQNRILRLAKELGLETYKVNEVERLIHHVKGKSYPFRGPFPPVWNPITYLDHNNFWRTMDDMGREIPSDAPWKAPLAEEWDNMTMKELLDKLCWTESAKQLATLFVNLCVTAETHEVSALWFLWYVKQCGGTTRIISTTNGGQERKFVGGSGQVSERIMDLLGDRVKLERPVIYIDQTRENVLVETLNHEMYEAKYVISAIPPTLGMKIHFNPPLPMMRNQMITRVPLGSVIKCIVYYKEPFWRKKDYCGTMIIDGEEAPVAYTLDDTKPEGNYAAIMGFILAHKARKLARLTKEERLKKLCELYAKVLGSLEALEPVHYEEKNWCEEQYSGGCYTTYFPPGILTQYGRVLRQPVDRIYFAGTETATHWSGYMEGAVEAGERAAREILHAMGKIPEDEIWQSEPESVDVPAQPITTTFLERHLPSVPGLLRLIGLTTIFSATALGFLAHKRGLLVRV

Male Sprague-Dawley rats = assay: Spontaneous locomotor activity in rats (sedative properties); format: in vivo; conditions: for Inactivity Duration / Large movements Duration / Large movements Occurrence: rats, 20 min period, mean ± SEM n=12
Description: A study was carried out in rats to determine whether the dihydrotetrabenazine isomers of the invention have sedative properties. […] Male Sprague-Dawley rats, (Charles River Laboratories, Saint-Germain/L'Arbresle, France), weighing 200-250 g at the beginning of the study, were used for the studies. […] The rats were allowed to acclimatize to their conditions for at least five days before commencement of the study. The rats received food ([…], France, ref. 811002) and water (tap water in water bottle) ad libitum. Solutions of each test compound in corn oil were freshly prepared on the day of the experiment. Haloperidol was prepared in hydroxyethylcellulose, 0.5% in deionized water. Either the vehicle or the test compounds were administered as a single dose (0.3, 1, 3 and 10 mg/kg, 2 mL/kg i.p.). The reference compound haloperidol (1 mg/kg) was administered i.p. […] The animals were placed in plexiglass cages under a video camera in a room with low light intensity (maximum 50 lux). At forty five minutes and 3 hours after administration, locomotor activity was determined during 20 minute periods using a video image analyzer (Videotrack, View Point, France). […] The number and duration of ambulatory movements and duration of inactivity was measured. At the end of the locomotor activity measurement (45 minutes and 3 hours), palpebral closure and arousal were be scored as follows in the plexiglass cage: […] Image tracking was performed using a video camera placed above the plexiglass cage, recording overall locomotor activity. […] The results were expressed as the means ±SEMs of the 12 individual values. Statistical analyses were carried out using ANOVA (one way) and Dunnett's t-test and with the non parametric test of Kruskal-Wallis followed by a Mann & Whitney U-test for the sedation cotation. A p value of p<0.05 was taken as indicating significance. Group size n=12 Group 1: Reference, haloperidol (1 mg/kg i.p.) Group 2: Vehicle control group (2 ml/kg i.p.) Group 3: tetrabenazine (0.3 mg/kg i.p) Group 4: tetrabenazine (1 mg/kg i.p) Group 5: tetrabenazine (3 mg/kg i.p) Group 6: tetrabenazine (10 mg/kg i.p) Group 7: […]

[2] = target: 5-hydroxytryptamine isoform 1d (Homo sapiens, UniProt P28221); assay: 5-hydroxytryptamine 1d inhibition; format: binding
[3] = target: T2, monoamine oxidase isoform A (Homo sapiens, UniProt P21397); assay: Monoamine oxidase A inhibition; format: biochemical
T2 sequence (P21397 1-527): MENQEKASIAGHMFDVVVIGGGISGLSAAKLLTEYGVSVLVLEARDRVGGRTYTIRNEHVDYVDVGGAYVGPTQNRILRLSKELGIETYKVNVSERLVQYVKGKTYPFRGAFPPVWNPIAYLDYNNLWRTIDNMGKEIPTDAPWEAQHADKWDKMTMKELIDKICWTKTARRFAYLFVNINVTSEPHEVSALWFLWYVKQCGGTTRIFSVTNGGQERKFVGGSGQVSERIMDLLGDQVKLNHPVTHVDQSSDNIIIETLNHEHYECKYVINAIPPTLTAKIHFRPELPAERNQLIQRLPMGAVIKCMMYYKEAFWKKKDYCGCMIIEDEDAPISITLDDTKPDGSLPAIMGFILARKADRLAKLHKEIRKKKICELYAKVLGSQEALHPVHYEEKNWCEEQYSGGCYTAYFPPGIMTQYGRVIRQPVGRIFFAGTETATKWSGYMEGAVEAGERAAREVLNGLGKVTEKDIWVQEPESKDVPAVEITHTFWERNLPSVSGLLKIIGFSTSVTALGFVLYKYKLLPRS

adrenergic receptors = assay: Adrenergic receptor inhibition; format: binding
[4] = 0.3 mg/kg i.p., 45 minutes after administration
[5] = 0.3 mg/kg i.p., 3 hours after administration
[6] = 1 mg/kg i.p., 45 minutes after administration
[7] = 1 mg/kg i.p., 3 hours after administration
[8] = 3 mg/kg i.p., 45 minutes after administration
[9] = 3 mg/kg i.p., 3 hours after administration
[10] = 10 mg/kg i.p., 45 minutes after administration
[11] = 10 mg/kg i.p., 3 hours after administration

5-hydroxytryptamine isoform 1d, sequence (P28221 whole entry, canonical isoform): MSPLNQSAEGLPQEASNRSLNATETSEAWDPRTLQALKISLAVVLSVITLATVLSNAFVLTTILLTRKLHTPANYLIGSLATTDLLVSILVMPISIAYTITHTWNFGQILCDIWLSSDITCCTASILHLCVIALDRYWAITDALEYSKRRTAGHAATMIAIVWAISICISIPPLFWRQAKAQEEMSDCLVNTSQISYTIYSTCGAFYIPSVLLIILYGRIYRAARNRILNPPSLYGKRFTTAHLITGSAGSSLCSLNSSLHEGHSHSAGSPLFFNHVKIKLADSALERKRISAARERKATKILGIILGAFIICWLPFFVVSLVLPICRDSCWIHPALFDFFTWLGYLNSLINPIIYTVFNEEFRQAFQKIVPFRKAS

For COc1cc2c(cc1OC)[C@H]1C[C@H](O)[C@@H](CC(C)C)CN1CC2 (single isomer, unassigned) [Isomer B], the “inhibitory activity against monoamine oxidase isoform B” value [1] was “no inhibitory activity”, the sedative effect (Male Sprague-Dawley rats; locomotor studies carried out on rats) was “no sedative effects were observed” and the “Inactivity Duration” value (Male Sprague-Dawley rats; [4]) was 346.1 ± 36.9 s. The “Large movements Duration” value (Male Sprague-Dawley rats; [4]) was 72.0 ± 9.6 s, the “Large movements Occurrence” value (Male Sprague-Dawley rats; [4]) was 268 ± 36 and the “Inactivity Duration” value (Male Sprague-Dawley rats; [5]) was 566.4 ± 44.3 s. For the same compound, the “Large movements Duration” value (Male Sprague-Dawley rats; [5]) was 28.9 ± 9.2 s, the “Large movements Occurrence” value (Male Sprague-Dawley rats; [5]) was 101 ± 29 and the “Inactivity Duration” value (Male Sprague-Dawley rats; [6]) was 334.0 ± 23.2 s. The “Large movements Duration” value (Male Sprague-Dawley rats; [6]) was 87.0 ± 7.6 s, the “Large movements Occurrence” value (Male Sprague-Dawley rats; [6]) was 297 ± 22 and the “Inactivity Duration” value (Male Sprague-Dawley rats; [7]) was 525.8 ± 28.6 s. For the same compound, the “Large movements Duration” value (Male Sprague-Dawley rats; [7]) was 34.5 ± 6.2 s, the “Large movements Occurrence” value (Male Sprague-Dawley rats; [7]) was 125 ± 18 and the “Inactivity Duration” value (Male Sprague-Dawley rats; [8]) was 342.2 ± 33.3 s. The “Large movements Duration” value (Male Sprague-Dawley rats; [8]) was 89.1 ± 12.4 s, the “Large movements Occurrence” value (Male Sprague-Dawley rats; [8]) was 313 ± 38 and the “Inactivity Duration” value (Male Sprague-Dawley rats; [9]) was 530.5 ± 38.0 s. For the same compound, the “Large movements Duration” value (Male Sprague-Dawley rats; [9]) was 31.1 ± 6.5 s, the “Large movements Occurrence” value (Male Sprague-Dawley rats; [9]) was 113 ± 17 and the “Inactivity Duration” value (Male Sprague-Dawley rats; [10]) was 333.1 ± 26.9 s. For the same compound, the “Large movements Duration” value (Male Sprague-Dawley rats; [10]) was 84.0 ± 11.2 s, the “Large movements Occurrence” value (Male Sprague-Dawley rats; [10]) was 298 ± 37 and the “Inactivity Duration” value (Male Sprague-Dawley rats; [11]) was 515.0 ± 53.0 s. The “Large movements Duration” value (Male Sprague-Dawley rats; [11]) was 30.9 ± 6.4 s, the “Large movements Occurrence” value (Male Sprague-Dawley rats; [11]) was 120 ± 26 and the sedative effect (Male Sprague-Dawley rats; rats, 0.3, 1, 3 and 10 mg/kg i.p., 45 minutes and 3 hours after administration) was “no sedative effects at any time”. For the same compound, the “inhibitory activity against 5-hydroxytryptamine isoform 1d” value [2] was “no inhibitory activity”, the “inhibitory activity against monoamine oxidase isoform A” value [3] was “no inhibitory activity” and the “inhibition of the adrenergic receptors” value (adrenergic receptors) was “either weakly active or inactive”.
